Reference: patent publication US20240245793A1, “PSD-95 INHIBITORS AND USES THEREOF” (priority 2021, published 2024)
Where two headings read alike, the source gives them in different places.

Test system: HeLa cells stably expressing HaloGFP
Assay: Chloroalkane penetration assay (CAPA), membrane permeability and cellular uptake
Type: cell-based
Text: Since PSD-95 is located intracellularly, it is essential for any drug targeting PSD-95 to efficiently cross the cell membrane. To assess the cellular permeability and delivery to the cytosol of the compounds as defined herein, the cellular chloroalkane penetration assay (CAPA) may be used (Peraro et al. 2018). This assay takes advantage of a modified haloalkane dehalogenase designed to covalently bind chloroalkane (CA) molecules. A HeLa cell line expressing a fusion protein comprising a HaloTag, a green fluorescent protein (GFP) and a mitochondria-targeting peptide is used to report cytosolic delivery. The general format of the CAPA is a pulse-chase assay (Deprey & Kritzer, 2020). Cells expressing the HaloTag enzyme are incubated with CA-tagged peptides. When these CA-peptides penetrate the cell membrane and reach the cytosol, they will bind to and react with the HaloTag (pulse step). Following a washing step, the cells are incubated with a CA-tagged dye that quantitatively penetrates the cell membrane and reacts with remaining unreacted HaloTag sites (chase step). Flow cytometry is used to measure the fluorescence intensity of the cells and the measured fluorescence is inversely proportional to the amount of CA-peptides that reach the penetrated the cells and can thus be used to assess cytosolic delivery. The obtained data is commonly expressed as CP50 values, the concentration at which 50% cell penetration is observed. The CP50 value of a compound may be measured as described in example 4.
The membrane permeability of compounds 10 to 75 was determined in HeLa cells stably expressing HaloGFP exclusively located in the cytosol. Cells were seeded at a density of 40.000 cells/well one day prior to the experiment. After the growth media was aspirated and replaced by 100 μL of Opti-MEM, 25 μL of a prepared serial dilution of the ligand in Opti-MEM was added to the cells (constant DMSO concentration), and the plate was incubated for 4 h at 37° C. and 5% CO2. The contents of the wells were aspirated, and cells were washed with fresh Opti-MEM for 15 min. After aspiration of the wash, the cells were incubated with TAMRA-CA (5 μM) for 15 min. After aspiration of the chase solution, cells were washed with Opti-MEM for 30 min. Following removal of the wash, cells were trypsinized, resuspended in PBS (2% FBS), and analyzed using a benchtop flow cytometer. Using no ligand and no TAMRA-CA control well, the obtained fluorescence intensity data was normalized and plotted as dose-response curves. Reported CP50 values represent half-maximum red fluorescence which behaves inverse to cell penetration of the ligand.

CP50 [µM] | Structure (SMILES) | CP50 (CA-tagged NPEG4-(IETDV)2 with various CPP-tags, 4 h at 37° C., mean ± SEM (Table 11, FIG. 8)) [µM]
17.9 ± 0.3 | CC[C@H](C)[C@H](NC(=O)CCOCCOCCN(CCOCCOCCC(=O)N[C@H](C(=O)N[C@@H](CCC(=O)O)C(=O)N[C@H](C(=O)N[C@@H](CC(=O)O)C(=O)N[C@H](C(=O)O)C(C)C)[C@@H](C)O)[C@@H](C)CC)C(=O)[C@H](Cc1ccccc1)NC(=O)[C@H](CCC(N)=O)NC(=O)CNC(=O)[C@H](CCCNC(=N)N)NC(=O)[C@H](CC(C)C)NC(=O)[C@H](CC(C)C)NC(=O)[C@H](CCCNC(=N)N)NC(=O)[C@H](CC(C)C)NC(=O)[C@H](Cc1ccc(O)cc1)NC(=O)[C@@H](NC(=O)[C@H](CC(C)C)NC(=O)[C@@H]1CCCN1C(=O)CCC(=O)NCCOCCOCCCCCCCl)[C@@H](C)CC)C(=O)N[C@@H](CCC(=O)O)C(=O)N[C@H](C(=O)N[C@@H](CC(=O)O)C(=O)N[C@H](C(=O)O)C(C)C)[C@@H](C)O [Compound 57] | –
67.2 ± 5.3 | CC[C@@H](C)[C@@H](NC(=O)[C@@H](CC(C)C)NC(=O)[C@H]1CCCN1C(=O)CCC(=O)NCCOCCOCCCCCCCl)C(=O)N[C@H](Cc1ccc(O)cc1)C(=O)N[C@H](CC(C)C)C(=O)N[C@H](CCCNC(=N)N)C(=O)N[C@H](CC(C)C)C(=O)N[C@H](CC(C)C)C(=O)N[C@H](CCCNC(=N)N)C(=O)NCC(=O)N[C@H](CCC(N)=O)C(=O)N[C@H](Cc1ccccc1)C(=O)N(CCOCCOCCC(=O)N[C@H](C(=O)N[C@@H](CCC(=O)O)C(=O)N[C@H](C(=O)N[C@@H](CC(=O)O)C(=O)N[C@H](C(=O)O)C(C)C)[C@@H](C)O)[C@@H](C)CC)CCOCCOCCC(=O)N[C@H](C(=O)N[C@@H](CCC(=O)O)C(=O)N[C@H](C(=O)N[C@@H](CC(=O)O)C(=O)N[C@H](C(=O)O)C(C)C)[C@@H](C)O)[C@@H](C)CC [Compound 59] | –
– | CC[C@H](C)[C@H](NC(=O)CCOCCOCCN(CCOCCOCCC(=O)N[C@H](C(=O)N[C@@H](CCC(=O)O)C(=O)N[C@H](C(=O)N[C@@H](CC(=O)O)C(=O)N[C@H](C(=O)O)C(C)C)[C@@H](C)O)[C@@H](C)CC)C(=O)[C@@H]1CC(=O)NC[C@H](NC(=O)CCC(=O)NCCOCCOCCCCCCCl)C(=O)N[C@@H](CCCCN)C(=O)N[C@@H](C)C(=O)N2CCC[C@H]2C(=O)N[C@@H](CCC(=O)O)C(=O)N[C@@H]([C@@H](C)O)C(=O)N[C@@H](C)C(=O)N[C@@H](CC(C)C)C(=O)N1)C(=O)N[C@@H](CCC(=O)O)C(=O)N[C@H](C(=O)N[C@@H](CC(=O)O)C(=O)N[C@H](C(=O)O)C(C)C)[C@@H](C)O [Compound 61] | 13.2 ± 0.4
11.2 ± 0.7 | CC[C@H](C)[C@H](NC(=O)CCOCCOCCN(CCOCCOCCC(=O)N[C@H](C(=O)N[C@@H](CCC(=O)O)C(=O)N[C@H](C(=O)N[C@@H](CC(=O)O)C(=O)N[C@H](C(=O)O)C(C)C)[C@@H](C)O)[C@@H](C)CC)C(=O)[C@H](CCCCNC(=O)CCC(=O)NCCOCCOCCCCCCCl)NC(=O)CCCNC(=O)CC[C@@H]1NC(=O)[C@@H](CCCNC(=N)N)NC(=O)[C@H](CCCNC(=N)N)NC(=O)[C@@H](CCCNC(=N)N)NC(=O)[C@H](CCCNC(=N)N)NC(=O)[C@H](Cc2ccc3ccccc3c2)NC(=O)[C@@H](Cc2ccccc2)NC(=O)[C@H](Cc2ccccc2)NC1=O)C(=O)N[C@@H](CCC(=O)O)C(=O)N[C@H](C(=O)N[C@@H](CC(=O)O)C(=O)N[C@H](C(=O)O)C(C)C)[C@@H](C)O [Compound 63] | –
1.66 ± 0.43 | CC[C@H](C)[C@H](NC(=O)CCOCCOCCN(CCOCCOCCC(=O)N[C@H](C(=O)N[C@@H](CCC(=O)O)C(=O)N[C@H](C(=O)N[C@@H](CC(=O)O)C(=O)N[C@H](C(=O)O)C(C)C)[C@@H](C)O)[C@@H](C)CC)C(=O)[C@H](CCCNC(=N)N)NC(=O)[C@H](CCCNC(=N)N)NC(=O)[C@H](CCCNC(=N)N)NC(=O)[C@H](CCCNC(=N)N)NC(=O)[C@H](CCCNC(=N)N)NC(=O)[C@H](CCCNC(=N)N)NC(=O)[C@H](CCCNC(=N)N)NC(=O)CCC(=O)NCCOCCOCCCCCCCl)C(=O)N[C@@H](CCC(=O)O)C(=O)N[C@H](C(=O)N[C@@H](CC(=O)O)C(=O)N[C@H](C(=O)O)C(C)C)[C@@H](C)O [Compound 64] | –
1.17 ± 0.37 | CC[C@H](C)[C@H](NC(=O)CCOCCOCCN(CCOCCOCCC(=O)N[C@H](C(=O)N[C@@H](CCC(=O)O)C(=O)N[C@H](C(=O)N[C@@H](CC(=O)O)C(=O)N[C@H](C(=O)O)C(C)C)[C@@H](C)O)[C@@H](C)CC)C(=O)[C@H](CCCNC(=N)N)NC(=O)[C@H](CCCNC(=N)N)NC(=O)[C@H](CCCNC(=N)N)NC(=O)[C@H](CCCNC(=N)N)NC(=O)[C@H](CCCNC(=N)N)NC(=O)CCC(=O)NCCOCCOCCCCCCCl)C(=O)N[C@@H](CCC(=O)O)C(=O)N[C@H](C(=O)N[C@@H](CC(=O)O)C(=O)N[C@H](C(=O)O)C(C)C)[C@@H](C)O [Compound 65] | –
3.71 ± 0.30 | CC[C@H](C)[C@H](NC(=O)CCOCCOCCN(CCOCCOCCC(=O)N[C@H](C(=O)N[C@@H](CCC(=O)O)C(=O)N[C@H](C(=O)N[C@@H](CC(=O)O)C(=O)N[C@H](C(=O)O)C(C)C)[C@@H](C)O)[C@@H](C)CC)C(=O)[C@H](CCCNC(=N)N)NC(=O)[C@H](CCCNC(=N)N)NC(=O)[C@H](CCCNC(=N)N)NC(=O)CCC(=O)NCCOCCOCCCCCCCl)C(=O)N[C@@H](CCC(=O)O)C(=O)N[C@H](C(=O)N[C@@H](CC(=O)O)C(=O)N[C@H](C(=O)O)C(C)C)[C@@H](C)O [Compound 66] | –
0.58 ± 0.09 | CC(C)C[C@H](NC(=O)[C@@H](NC(=O)[C@H](CCC(=O)O)NC(=O)[C@H](CCCCN)NC(=O)CCOCCOCCN(CCOCCOCCC(=O)N[C@@H](CCCCN)C(=O)N[C@@H](CCC(=O)O)C(=O)N[C@H](C(=O)N[C@@H](CC(C)C)C(=O)N[C@H](C(=O)O)C(C)C)[C@@H](C)O)C(=O)[C@H](CCCNC(=N)N)NC(=O)[C@H](CCCNC(=N)N)NC(=O)[C@H](CCCNC(=N)N)NC(=O)[C@H](CCCNC(=N)N)NC(=O)[C@H](CCCNC(=N)N)NC(=O)[C@H](CCCNC(=N)N)NC(=O)[C@H](CCCNC(=N)N)NC(=O)CCC(=O)NCCOCCOCCCCCCCl)[C@@H](C)O)C(=O)N[C@H](C(=O)O)C(C)C [Compound 68] | –
0.51 ± 0.08 | CC(C)C[C@H](NC(=O)[C@@H](NC(=O)[C@H](CCC(=O)O)NC(=O)[C@H](CCCCN)NC(=O)CCOCCOCCN(CCOCCOCCC(=O)N[C@@H](CCCCN)C(=O)N[C@@H](CCC(=O)O)C(=O)N[C@H](C(=O)N[C@@H](CC(C)C)C(=O)N[C@H](C(=O)O)C(C)C)[C@@H](C)O)C(=O)[C@H](CCCNC(=N)N)NC(=O)[C@H](CCCNC(=N)N)NC(=O)[C@H](CCCNC(=N)N)NC(=O)[C@H](CCCNC(=N)N)NC(=O)[C@H](CCCNC(=N)N)NC(=O)[C@H](CCCNC(=N)N)NC(=O)CCC(=O)NCCOCCOCCCCCCCl)[C@@H](C)O)C(=O)N[C@H](C(=O)O)C(C)C [Compound 70] | –
0.66 ± 0.14 | CC(C)C[C@H](NC(=O)[C@@H](NC(=O)[C@H](CCC(=O)O)NC(=O)[C@H](CCCCN)NC(=O)CCOCCOCCN(CCOCCOCCC(=O)N[C@@H](CCCCN)C(=O)N[C@@H](CCC(=O)O)C(=O)N[C@H](C(=O)N[C@@H](CC(C)C)C(=O)N[C@H](C(=O)O)C(C)C)[C@@H](C)O)C(=O)[C@H](CCCNC(=N)N)NC(=O)[C@H](CCCNC(=N)N)NC(=O)[C@H](CCCNC(=N)N)NC(=O)[C@H](CCCNC(=N)N)NC(=O)[C@H](CCCNC(=N)N)NC(=O)CCC(=O)NCCOCCOCCCCCCCl)[C@@H](C)O)C(=O)N[C@H](C(=O)O)C(C)C [Compound 72] | –
0.37 ± 0.08 | CC(C)C[C@H](NC(=O)[C@@H](NC(=O)[C@H](CCC(=O)O)NC(=O)[C@H](CCCCN)NC(=O)CCOCCOCCN(CCOCCOCCC(=O)N[C@@H](CCCCN)C(=O)N[C@@H](CCC(=O)O)C(=O)N[C@H](C(=O)N[C@@H](CC(C)C)C(=O)N[C@H](C(=O)O)C(C)C)[C@@H](C)O)C(=O)[C@H](CCCNC(=N)N)NC(=O)[C@H](CCCNC(=N)N)NC(=O)[C@H](CCCNC(=N)N)NC(=O)[C@H](CCCNC(=N)N)NC(=O)CCC(=O)NCCOCCOCCCCCCCl)[C@@H](C)O)C(=O)N[C@H](C(=O)O)C(C)C [Compound 74] | –
7.36 ± 0.31 | CC(C)C[C@H](NC(=O)[C@@H](NC(=O)[C@H](CCC(=O)O)NC(=O)[C@H](CCCCN)NC(=O)CCOCCOCCN(CCOCCOCCC(=O)N[C@@H](CCCCN)C(=O)N[C@@H](CCC(=O)O)C(=O)N[C@H](C(=O)N[C@@H](CC(C)C)C(=O)N[C@H](C(=O)O)C(C)C)[C@@H](C)O)C(=O)[C@H](CCCNC(=N)N)NC(=O)[C@H](CCCNC(=N)N)NC(=O)[C@H](CCCNC(=N)N)NC(=O)CCC(=O)NCCOCCOCCCCCCCl)[C@@H](C)O)C(=O)N[C@H](C(=O)O)C(C)C [Compound 75] | –
